Legend:
[1] = system: TM40DNeo, TM40DMp and TM40DT cells; assay: MTT in vitro cell proliferation assay with NAC treatment; assay type: cell-based, mouse
Protocol: MTT in vitro cell proliferation assay—Cells were seeded at 10^3 cells/well in 96—well plate and allowed to grow at 37° C. with 5% CO2. At each time point MTT (3-(4, 5-dimethylthiazolyl-2)-2, 5 diphenyltetrazolium bromide) reagent (5 mg/ml) was added in a volume of 10 μl per well and incubated at 37° C. with 5% CO2 for 3 hrs. The media was aspirated and 100 μl of DMSO was added and mixed until a uniform purple color was formed. The cell samples were measured using a plate reader at 570 nm. Assays were performed in triplicates.

[2] = system: pERK1/2 in TM40DNeo, TM40DMp and TM40DT cells; assay: ERK1/2 phosphorylation (Western blot) with NAC treatment; assay type: cell-based, mouse
Protocol: ERK1/2 phosphorylation—Protein lysates (30 μg) were separated on 12% SDS-PAGE and phospho-plus kit was used to determine the ERK1/2 phosphorylation (Cat No. 9100, Cell Signaling Technology).

CC(=O)N[C@@H](CS)C(=O)O [NAC, N-acetyl cysteine]
proliferation rate ([1]; TM40DMp cells): no significant change
proliferation rate ([1]; TM40DNeo cells): significant drop
proliferation rate ([1]; TM40DT cells): significant drop
levels of activated pERK1/2 ([2]; TM40DMp cells): no change
levels of activated pERK1/2 ([2]; TM40DNeo cells): significantly reduced
levels of activated pERK1/2 ([2]; TM40DT cells): significantly reduced

Reference: patent US11723961B2, “Maspin, maspin derivatives, and maspin mimetics for reducing ROS, inflammation, and skin aging” (Northwestern University, priority 2014, dated 2023)
